Reference: US20200181104A1, “SSAO INHIBITORS AND USES THEREOF” (METACRINE, INC., priority 2018, published 2020)
pIC50: −log10 of the molar value. Where a name gives a salt, the structure may show the parent alone.

Biological target: T1, Recombinant Human SSAO/VAP-1/AOC3 (Homo sapiens, UniProt Q16853)
T1 construct: purchased R&D systems 3957-AO
T1 sequence (Q16853 1-763): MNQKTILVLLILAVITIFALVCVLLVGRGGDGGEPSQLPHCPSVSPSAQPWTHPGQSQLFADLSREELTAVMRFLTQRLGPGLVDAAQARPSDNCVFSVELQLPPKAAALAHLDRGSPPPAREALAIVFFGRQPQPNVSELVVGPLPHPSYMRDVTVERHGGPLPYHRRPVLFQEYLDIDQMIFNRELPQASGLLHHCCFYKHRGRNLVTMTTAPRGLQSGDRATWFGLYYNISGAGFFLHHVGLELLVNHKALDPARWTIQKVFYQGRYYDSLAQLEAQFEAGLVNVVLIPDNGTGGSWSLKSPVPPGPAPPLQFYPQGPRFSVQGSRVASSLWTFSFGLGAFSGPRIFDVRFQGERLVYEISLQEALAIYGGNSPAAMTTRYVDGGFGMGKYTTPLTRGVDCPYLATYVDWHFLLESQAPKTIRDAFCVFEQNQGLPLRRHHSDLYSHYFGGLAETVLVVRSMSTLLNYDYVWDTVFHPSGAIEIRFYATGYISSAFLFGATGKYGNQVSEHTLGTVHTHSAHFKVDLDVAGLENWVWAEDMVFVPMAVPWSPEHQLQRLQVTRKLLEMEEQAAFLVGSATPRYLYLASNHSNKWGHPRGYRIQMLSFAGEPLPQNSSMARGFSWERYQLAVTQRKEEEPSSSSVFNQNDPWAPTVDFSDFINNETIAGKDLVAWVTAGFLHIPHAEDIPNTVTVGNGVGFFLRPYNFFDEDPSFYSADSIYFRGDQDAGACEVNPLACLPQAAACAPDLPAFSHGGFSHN
Assay: Human Semicarbazide-Sensitive Amine Oxidase (SSAO) Assay
Assay type: biochemical
Settings: recombinant enzyme, 30 minutes preincubation at 37° C., benzylamine substrate, Amplex Ultra Red/HRP fluorescence
Outline: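 Recombinant human SSAO/VAP-1 (2.5 μg/ml working stock in 50 mM HEPES) preincubated with compound 30 min at 37 °C over a 6-10 point CRC. Benzylamine substrate starts the reaction. H2O2 read kinetically over 30-120 min via Amplex Ultra Red/HRP fluorescence (ex 544/em 590 nm) to derive IC50.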

`NC/C(=C\F)COc1ccc(C23CCCC(C(=O)NC4CCOCC4)(CC2)C3)cc1` (stereo not shown) [Compound 5.01, 5-(4-(((E)-2-(Aminomethyl)-3-fluoroallyl)oxy)phenyl)-N-(tetrahydro-2H-pyran-4-yl)bicyclo[3.2.1]octane-1-carboxamide Hydrochloride] and `NC/C(=C\F)COc1ccc(C23CCCC(C(=O)NC4CCOCC4)(CC2)CC3)cc1` [Compound 10.01, (E)-5-(4-((2-(Aminomethyl)-3-fluoroallyl)oxy)phenyl)-N-(tetrahydro-2H-pyran-4-yl)bicyclo[3.2.2]nonane-1-carboxamide Hydrochloride] cannot be ordered by pIC50: no less than 8.00 for the first, no less than 8.00 for the second.

`CC(C)NC(=O)C12CC3CC(C1)CC(c1ccc(OC/C(=C/F)CN)cc1)(C3)C2` [Compound 6.04, (E)-3-(4-((2-(aminomethyl)-3-fluoroallyl)oxy)phenyl)-N-isopropyladamantane-1-carboxamide] and `CNC(=O)C12CCCC(c3ccc(OC/C(=C/F)CN)cc3)(CC1)CC2` [Compound 10, (E)-5-(4-((2-(Aminomethyl)-3-fluoroallyl)oxy)phenyl)-N-methylbicyclo[3.2.2]nonane-1-carboxamide Hydrochloride] cannot be ordered by pIC50: no less than 8.00 for the first, no less than 8.00 for the second.

`NC/C(=C\F)COc1ccc(C23CCC(NC(=O)C4CCOCC4)(CC2)CC3)cc1` [Compound 7, (E)-N-(4-(4-((2-(Aminomethyl)-3-fluoroallyl)oxy)phenyl)bicyclo[2.2.2]octan-1-yl)tetrahydro-2H-pyran-4-carboxamide Hydrochloride] and `NC/C(=C\F)COc1ccc(C23CCC(OCC(=O)NC4CCOCC4)(CC2)CC3)cc1` [Compound 8.01, (E)-2-((4-(4-((2-(aminomethyl)-3-fluoroallyl)oxy)phenyl)bicyclo [2.2.2]octan-1-yl)oxy)-N-(tetrahydro-2H-pyran-4-yl)acetamide] cannot be ordered by pIC50: no less than 8.00 for the first, no less than 8.00 for the second.

`NC/C(=C\F)COc1ccc(C23CCC(NC(=O)CCO)(CC2)CC3)cc1` [Compound 7.01, (E)-N-(4-(4-((2-(aminomethyl)-3-fluoroallyl)oxy)phenyl)bicyclo [2.2.2]octan-1-yl)-3-hydroxypropanamide] and `COCCC(=O)NC12CCC(c3ccc(OC/C(=C/F)CN)cc3)(CC1)CC2` [Compound 7.02, (E)-N-(4-(4-((2-(aminomethyl)-3-fluoroallyl)oxy)phenyl)bicyclo [2.2.2]octan-1-yl)-3-methoxypropanamide] cannot be ordered by pIC50: no less than 8.00 for the first, no less than 8.00 for the second.

`NC/C(=C\F)COc1ccc(C23CCC(NS(=O)(=O)C4CC4)(CC2)CC3)cc1` [Compound 7.03, (E)-N-(4-(4-((2-(aminomethyl)-3-fluoroallyl)oxy)phenyl)bicyclo[2.2.2]octan-1-yl)cyclopropanesulfonamide] and `NC/C(=C\F)COc1ccc(C23CCC(c4nnc(C5CC5)o4)(CC2)CC3)cc1` [Compound 11.01, (E)-2-((4-(4-(5-cyclopropyl-1,3,4-oxadiazol-2-yl)bicyclo[2.2.2]octan-1-yl)phenoxy)methyl)-3-fluoroprop-2-en-1-amine] cannot be ordered by pIC50: no less than 8.00 for the first, no less than 8.00 for the second.

`CNC(=O)COC12CCC(c3ccc(OC/C(=C/F)CN)cc3)(CC1)CC2` [Compound 8, (E)-2-((4-(4-((2-(aminomethyl)-3-fluoroallyl)oxy)phenyl)bicyclo[2.2.2]octan-1-yl)oxy)-N-methylacetamide] and `COCCOC12CCC(c3ccc(OC/C(=C/F)CN)cc3)(CC1)CC2` [Compound 8.03, (E)-3-Fluoro-2-((4-(4-(2-methoxyethoxy)bicyclo[2.2.2]octan-1-yl)phenoxy)methyl)prop-2-en-1-amine Hydrochloride] cannot be ordered by pIC50: no less than 8.00 for the first, no less than 8.00 for the second.

`NC/C(=C\F)COc1ccc(C23CCC(OCC(=O)N4CCOCC4)(CC2)CC3)cc1` [Compound 8.02, (E)-2-((4-(4-((2-(aminomethyl)-3-fluoroallyl)oxy)phenyl)bicyclo [2.2.2]octan-1-yl)oxy)-1-morpholinoethanone] and `NC/C(=C\F)COc1ccc(C23CCC(c4nnc(C5CCOCC5)o4)(CC2)CC3)cc1` [Compound 11.02, (E)-3-fluoro-2-((4-(4-(5-(tetrahydro-2H-pyran-4-yl)-1,3,4-oxadiazol-2-yl)bicyclo[2.2.2]octan-1-yl)phenoxy)methyl)prop-2-en-1-amine] cannot be ordered by pIC50: no less than 8.00 for the first, no less than 8.00 for the second.

`NC/C(=C\F)CNc1ccc(C23CCC(C(=O)NC4CCOCC4)(CC2)CC3)cc1` [Compound 9, (E)-4-(4-((2-(Aminomethyl)-3-fluoroallyl)amino)phenyl)-N-(tetrahydro-2H-pyran-4-yl)bicyclo[2.2.2]octane-1-carboxamide Hydrochloride] and `Cc1nnc(C23CCC(c4ccc(OC/C(=C/F)CN)cc4)(CC2)CC3)o1` [Compound 11, (2E)-3-fluoro-2-({4-[4-(5-methyl(1,3,4-oxadiazol-2-yl))bicyclo[2.2.2]octyl]phenoxy}methyl)prop-2-enylamine] cannot be ordered by pIC50: 7.00 to 8.00 for the first, no less than 8.00 for the second.
